Laboratory results as given in the RepoRT retention time repository.

Assay: HILIC, Waters ACQUITY UPLC BEH Amide, 100 × 2.1 mm, 1.7 µm; A: water + 0.125% formic acid + 10 mM ammonium formate; B: 5% water + 95% acetonitrile + 0.125% formic acid + 10 mM ammonium formate; gradient (min/%B) 0/100 2/100 7.7/70 9.5/40 10.25/30 12.75/100 17/100
Conditions: stereoisomer not certain

Row | LC retention time [min] | Structure (SMILES)
1 | 3.89 | Nc1ccc(O)c(C(=O)O)c1
2 | 1.07 | Nc1nc2ccc(Cl)cc2c2nc(-c3ccco3)nn12
3 | 4.85 | NC1CCN(c2cccc(Cl)n2)CC1
4 | 1.5 | CC(=O)NCCCCCCNC(C)=O
5 | 1.12 | COCC1=C(C(=O)OC(C)OC(=O)OC(C)C)N2C(=O)C(NC(=O)C(=NOC)c3csc(N)n3)C2SC1 (stereo not given)
6 | 0.94 | Cc1sc(N)c(C(=O)c2cccc(C(F)(F)F)c2)c1C
7 | 9.52 | Cc1cc2nc3c(=O)[nH]c(=O)nc-3n(CC(O)C(O)C(O)COP(=O)(O)OP(=O)(O)OCC3OC(n4cnc5c(N)ncnc54)C(O)C3O)c2cc1C (stereo not given)
8 | 8.28 | Cc1cn(C2CC(O)C(COP(=O)(O)O)O2)c(=O)[nH]c1=O (stereo not given)
9 | 2.21 | CN1CCN(c2nc3cc(C(F)(F)F)ccc3n3cccc23)CC1
10 | 4.88 | OC1CCCCC1O (stereo not given) [1,2-Cyclohexanediol]
11 | 5.77 | O=C1CCCCC1=O [1,2-Cyclohexanedione]
12 | 1.47 | O=C1CCCC(=O)C1 [1,3 Cyclohexanedione]
13 | 1.01 | CC12CCC3c4ccc(O)cc4CCC3C1CCC2=O (stereo not given) [1,3,5(10)-Estratrien-3-ol-17-one]
14 | 1.83 | Cn1c(=O)c2c([nH]c(=O)n2C)n(C)c1=O [1,3,7-Trimethyluric acid]
15 | 1.56 | O=C(O)C1CCC(C(=O)O)CC1 (stereo not given) [1,4-Cyclohexanedicarboxylic acid]
16 | 1.15 | O=C1CCC(=O)CC1 [1,4-Cyclohexanedione]
17 | 0.92 | OCC1OCC(O)C(O)C1O (stereo not given) [1,5-Anhydrosorbitol]
18 | 4.09 | Cn1c(=O)[nH]c2[nH]c(=O)n(C)c2c1=O [1,7-Dimethyluric acid]
19 | 1.69 | Cn1c(=O)[nH]c2ncn(C)c2c1=O [1,7-Dimethylxanthine]
20 | 1.37 | CC(=O)n1ccnc1 [1-Acetylimidazole]
21 | 7.46 | Cn1cnc2c(ncn2C2OC(CO)C(O)C2O)c1=N (stereo not given) [1-Methyladenosine]

Row | LC retention time [min] | Structure (SMILES)
22 | 5.84 | Cn1c(N)nc2c(ncn2C2OC(CO)C(O)C2O)c1=O (stereo not given) [1-Methylguanosine]
23 | 6.26 | C[n+]1cccc(C(N)=O)c1 [1-Methylnicotinamide]
24 | 4.99 | Cn1cc(C2OC(CO)C(O)C2O)c(=O)[nH]c1=O (stereo not given) [1-Methylpseudouridine]
25 | 6.38 | Cn1cc(CC(N)C(=O)O)c2ccccc21 (stereo not given) [1-Methyltryptophan]
26 | 2.18 | Cn1c(=O)[nH]c2[nH]c(=O)[nH]c2c1=O [1-Methyluric acid]
27 | 0.99 | CCCCCCCCCCCCCCCCCC(=O)OCC(O)CO (stereo not given) [1-Monostearin]
28 | 3.44 | O=c1[nH]cnc2c1ncn2C1CCC(CO)O1 (stereo not given) [2',3'-Dideoxyinosine]
29 | 8.63 | Nc1ncnc2c1ncn2C1CC(O)C(COP(=O)(O)O)O1 (stereo not given) [2'-Deoxyadenosine-5'-monophosphate]
30 | 3.92 | Nc1ncnc2c1ncn2C1CC(O)C(CO)O1 (stereo not given) [2'-Deoxyadenosine]
31 | 5.87 | Nc1ccn(C2CC(O)C(CO)O2)c(=O)n1 (stereo not given) [2'-Deoxycytidine]
32 | 9.43 | Nc1nc2c(ncn2C2CC(OP(=O)(O)O)C(CO)O2)c(=O)[nH]1 (stereo not given) [2'-Deoxyguanosine 3'-monophosphate]
33 | 9.25 | Nc1nc2c(ncn2C2CC(O)C(COP(=O)(O)O)O2)c(=O)[nH]1 (stereo not given) [2'-Deoxyguanosine 5'-monophosphate]
34 | 6.4 | Nc1nc2c(ncn2C2CC(O)C(CO)O2)c(=O)[nH]1 (stereo not given) [2'-Deoxyguanosine]
35 | 4.93 | COC1C(O)C(CO)OC1n1cc(C)c(N)nc1=O (stereo not given) [2'-O-Methyl-5-methylcytidine]
36 | 1.75 | COC1C(O)C(CO)OC1n1cc(C)c(=O)[nH]c1=O (stereo not given) [2'-O-Methyl-5-methyluridine]
37 | 2.6 | COC1C(O)C(CO)OC1n1cnc2c(N)ncnc21 (stereo not given) [2'-O-Methyladenosine]
38 | 5.02 | COC1C(O)C(CO)OC1n1ccc(N)nc1=O (stereo not given) [2'-O-Methylcytidine]
39 | 5.72 | COC1C(O)C(CO)OC1n1cnc2c(=O)[nH]c(N)nc21 (stereo not given) [2'-O-Methylguanosine]
40 | 4.06 | COC1C(O)C(CO)OC1n1cnc2c(=O)[nH]cnc21 (stereo not given) [2'-O-Methylinosine]
41 | 2.24 | COC1C(O)C(CO)OC1n1ccc(=O)[nH]c1=O (stereo not given) [2'-O-Methyluridine]
42 | 3.34 | CC(O)C(C)O (stereo not given) [2,3-Butanediol]

Row | LC retention time [min] | Structure (SMILES)
43 | 4.54 | Nc1ccn(C2CCC(CO)O2)c(=O)n1 (stereo not given) [2,3-Dideoxycytidine]
44 | 1.73 | O=c1ccn(C2CCC(CO)O2)c(=O)[nH]1 (stereo not given) [2,3-Dideoxyuridine]
45 | 9.88 | NC(CCCC(N)C(=O)O)C(=O)O (stereo not given) [2,6-Diaminopimelic acid]
46 | 1.53 | O=c1ccc2cccc(O)c2[nH]1 [2,8-Quinolinediol]
47 | 1.27 | COc1cccc(C(=O)O)c1N [2-Amino-3-methoxybenzoic acid]
48 | 2.05 | NCCS [2-Aminoethanethiol]
49 | 1.22 | Nc1ccccc1O [2-Aminophenol]
50 | 1.47 | OCC1OC(n2cnc3c(NC4CCCC4)nc(Cl)nc32)C(O)C1O (stereo not given) [2-Chloro-N6-cyclopentyladenosine]
51 | 2.69 | Nc1nc(Cl)nc2c1ncn2C1OC(CO)C(O)C1O (stereo not given) [2-Chloroadenosine]
52 | 9.16 | Nc1ccn(C2CC(O)C(COP(=O)(O)O)O2)c(=O)n1 (stereo not given) [2-Deoxycytidine-5-monophosphoric acid]
53 | 1.42 | O=CCC(O)C(O)CO (stereo not given) [2-Deoxyribose]
54 | 2.96 | O=c1ccn(C2CC(O)C(CO)O2)c(=O)[nH]1 (stereo not given) [2-Deoxyuridine]
55 | 1.39 | CCCC=CC=O [2-Hexenal]
56 | 1.29 | CC(C)C(O)C(=O)O (stereo not given) [2-Hydroxy-3-methylbutyric acid]
57 | 1.57 | CC(C)CC(O)C(=O)O (stereo not given) [2-Hydroxy-4-methylpentanoic acid]
58 | 4.36 | O=C(CO)c1ccccc1 [2-Hydroxyacetophenone]
59 | 1.01 | O=C(C=Cc1ccccc1O)c1ccccc1 [2-Hydroxychalcone]
60 | 0.91 | O=C(O)CCC(O)C(=O)O (stereo not given) [2-Hydroxyglutaric acid]
61 | 1.51 | O=c1ccc2ccccc2[nH]1 [2-Hydroxyquinoline]
62 | 1.36 | Oc1cc2ccccc2[nH]1 [2-Indolinone]
63 | 8.71 | C=Cc1ccc(O)c(OC)c1 [2-Methoxy-4-vinylphenol]

Row | LC retention time [min] | Structure (SMILES)
64 | 1.01 | CCCCCCCCCCCCCC(=O)OC(CO)CO [2-Myristoylglycerol]
65 | 0.99 | CCCCCCCCCCCCCCCC(=O)OC(CO)CO [2-Palmitoylglycerol]
66 | 5.37 | CCC(=O)NCC(=O)O [2-Propanamidoacetic acid]
67 | 2.05 | O=c1cccc[nH]1 [2-Pyridone]
68 | 5.33 | Nc1ccn(C2OC(CO)C(O)C2O)c(=S)n1 (stereo not given) [2-Thiocytidine]
69 | 2.48 | O=c1ccn(C2OC(CO)C(O)C2O)c(=S)[nH]1 (stereo not given) [2-Thiouridine]
70 | 9.47 | OCC1OC(OC2C(O)OC(CO)C(O)C2O)C(O)C(O)C1O (stereo not drawn) [2-alpha-Mannobiose]
71 | 7.29 | Nc1ncnc2c1ncn2C1CC2OP(=O)(O)OCC2O1 (stereo not given) [3',5'-Cyclic dAMP]
72 | 5.09 | COC1C(CO)OC(n2ccc(N)nc2=O)C1O (stereo not given) [3'-O-Methylcytidine]
73 | 5.8 | COC1C(CO)OC(n2cnc3c(=O)[nH]c(N)nc32)C1O (stereo not given) [3'-O-Methylguanosine]
74 | 2.42 | COC1C(CO)OC(n2ccc(=O)[nH]c2=O)C1O (stereo not given) [3'-O-Methyluridine]
75 | 2.3 | O=C(O)C(O)c1ccc(O)c(O)c1 (stereo not given) [3,4-Dihydroxymandelic acid]
76 | 8.31 | NC(Cc1ccc(O)c(O)c1)C(=O)O (stereo not given) [3,4-Dihydroxyphenylalanine]
77 | 7.54 | NC(Cn1cccn1)C(=O)O (stereo not given) [3-(1-Pyrazolyl)-alanine]
78 | 7.42 | NC(CC(=O)O)c1ccc(O)cc1 (stereo not given) [3-Amino-3-(4-hydroxyphenyl)propionic acid]
79 | 7.4 | CC(CN)C(=O)O (stereo not given) [3-Aminoisobutyric acid]
80 | 8.06 | Nc1cc(CC(N)C(=O)O)ccc1O (stereo not given) [3-Aminotyrosine]
81 | 7.13 | NC(Cc1ccc(O)c(Cl)c1)C(=O)O (stereo not given) [3-Chlorotyrosine]
82 | 2.87 | O=c1ccn(C2OC(CO)CC2O)c(=O)[nH]1 (stereo not given) [3-Deoxyuridine]
83 | 8.15 | NC(N)=NCCC(=O)O [3-Guanidinopropionic acid]
84 | 1.48 | Nc1c(O)cccc1C(=O)O [3-Hydroxyanthranilic acid]

Row | Structure (SMILES) | LC retention time [min]
85 | C=C(C)CN1CCC23c4c5ccc(O)c4OC2c2[nH]c4ccccc4c2CC3(O)C1C5 (stereo not given) | 2.93
86 | CN1CCC2(c3cccc(O)c3)Cc3nc4ccccc4cc3CC2C1 (stereo not given) | 5.11
87 | COC(=O)N1CCN(C(=O)Cc2ccc(Cl)c(Cl)c2)C(CN2CCCC2)C1 (stereo not given) | 2.56
88 | COc1ccc2[nH]cc(C3=CCNCC3)c2c1 | 4.61
89 | c1ccc(Cn2ccnc2)cc1 [1-Benzylimidazole] | 1.63
90 | NCCc1ccccn1 [2-(2-Aminoethyl)pyridine] | 5.52
91 | NCC(=O)c1ccccc1 [2-Aminoacetophenone] | 1.08
92 | NCCP(=O)(O)O [2-Aminoethylphosphonic acid] | 9.39
93 | NC(=O)Cc1ccccc1 [2-Phenylacetamide] | 1.26
94 | COc1ccc(C=O)cc1OC [3,4-Dimethoxybenzaldehyde] | 1.08
95 | CCNC(C)Cc1ccc2c(c1)OCO2 (stereo not given) [3,4-Methylenedioxyethamphetamine] | 2.94
